Measured values: US20080194673A1, “Environment-Friendly Pollution-Proof Agent” (priority 2004, published 2008)
Converted amounts (≈) assume the structure as drawn.

Key:
[1] = test system: Enteromorpha spores; experiment: inhibitory activity test against the mobility of Enteromorpha spores (Sargassum confusum fractions, Tables 5-8); type: cell-based
[2] = test system: Aspergillus niger; experiment: minimum inhibitory concentration (MIC) by two-fold serial dilution in nutrient broth; type: cell-based; details: 30° C., 48 hours
Description: (§1) A liquid medium obtained by diluting PAGS by two-fold serial dilution was placed on a 96-multiwell plate and inoculated with 10^4 cfu/ml of microorganisms. […] The liquid medium used in the test was a nutrient broth (Difco).

[3] = test system: Staphylococcus aureus; experiment: as above; type: cell-based; details: 30° C., 48 hours
Description: as §1

[4] = test system: mice; experiment: safety test, single administration to mice, observed for 7 days; type: in vivo, mouse; details: 10 mg/kg, 10 mice per group
Protocol: Each of hexadecane, octadecane, eicosane, 1-eicosanol, 1-pentadecanol, dibutyl phthalate, dioctyl phthalate, diisononyl phthalate, dicyclohexyl phthalate, and 6-formyl-3,4-dehydro-2,8-dimethyl-2-(3′,6′-dienyl-8′-hydroxy-4′-methylnonane)-2H-1-benzopyrane is dissolved in dimethylsulfoxide (DMSO) and diluted with water.

[5] = test system: spores of Ulva pertusa; experiment: inhibitory effect test against the mobility of the spores of Ulva pertusa (Example 2 fractions); type: cell-based
Protocol: The effects of the fractions I-VI on the inhibition of attachment of fouling organisms were tested on Ulva pertusa, one of typical fouling algae. Ulva pertusa was collected in Kyongpodae, Kangnung-city, Kangwon-Do, Korea. The collected seaweed was transported to a laboratory in which only Ulva pertusa was screened. In order to remove fouling organisms, the screened algae were treated three times with supersonic waves for 1 minute for each time, and then washed clean with sterilized seawater. The washed algae were simply sterilized by immersion in a mixed solution of 1% betadine and 2% trition X-100 for 1 minute, followed by semi-drying. The semi-dried Ulva pertusa was added to sterilized seawater and placed in a 80 μmol m^−2s^−, 20° C. incubator to induce the release of spores.
10 μl of dimethyl sulfoxide (DMSO) was placed in a prepared tube, to which the seawater having spores released therein was then added. […] Before inoculation with each fraction at each dilution concentration, the movement of spores in the seawater was examined and the result was used as a comparison with a control group.

[6] = oral toxicity of methyl palmitate in mice; details: mouse, in vivo, administered orally to mice
[7] = test system: eyes of rabbits; details: rabbit, in vivo
[8] = test system: human body; details: in vivo
[9] = fish toxicity against water; details: Blugil fish (a kind of trout), in vivo, other: exposure in water
Protocol: The physical properties of methyl palmitate are as follows: a melting point of 32-34° C., a boiling point of 163-164° C., and a density of 0.852. […] Blugil fish which is a kind of trout was tested for toxicity against water, the result was as follows: LC50=1000 ml/l.

[10] = in vivo
Protocol: Methyl stearate is an opaque white-colored crystal and has the following physical properties: a melting point of 40-42° C., and a boiling point of 181-182° C.

[11] = ratio 1:0 (not explained; test of PAGS)
[12] = ratio 3:1 (not explained; test of PAGS)

| Compound | death of the mice [4] | Mobility inhibitory activity ([5]; 125 μg/ml) | Mobility inhibitory activity ([5]; 250 μg/ml) | Mobility inhibitory activity ([5]; 500 μg/ml) | Mobility inhibitory activity ([5]; 1,000 μg/ml) | Mobility inhibitory activity ([5]; 2,000 μg/ml) | Mobility inhibitory activity ([5]; 4,000 μg/ml) | further results |
| --- | --- | --- | --- | --- | --- | --- | --- | --- |
| 6-formyl-3,4-dehydro-2,8-dimethyl-2-(3′,6′-dienyl-8′-hydroxy-4′-methylnonane)-2H-1-benzopyrane | no death |  |  |  |  |  |  | Activity (inhibition of the mobility of spores) ([1]; 125 μg/ml): ++++ (more than 95% inhibition of the mobility of spores); Activity (inhibition of the mobility of spores) ([1]; 250 μg/ml): ++++ (more than 95% inhibition of the mobility of spores); Activity (inhibition of the mobility of spores) ([1]; 500 μg/ml): ++++ (more than 95% inhibition of the mobility of spores); Activity (inhibition of the mobility of spores) ([1]; 1,000 μg/ml): ++++ (more than 95% inhibition of the mobility of spores); Activity (inhibition of the mobility of spores) ([1]; 2,000 μg/ml): ++++ (more than 95% inhibition of the mobility of spores); Activity (inhibition of the mobility of spores) ([1]; 4,000 μg/ml): ++++ (more than 95% inhibition of the mobility of spores); MIC Aspergillus niger 1:0 [2, 11]: 10; MIC Aspergillus niger 3:1 [2, 12]: 2; MIC Staphylococcus aureus 1:0 [3, 11]: 4; MIC Staphylococcus aureus 3:1 [3, 12]: 1 |
| CCCCCCCCCCCCCCCCCCCC (single isomer, unassigned) [eicosane] | no death |  |  |  |  |  |  |  |
| CCCCCCCCCCCCCCCO [1-pentadecanol] | no death |  |  |  |  |  |  |  |
| CCCCCCCCCCCCCCCCCCCC [B] |  | ++++ (more than 95% inhibition of the mobility of spores) | ++++ (more than 95% inhibition of the mobility of spores) | ++++ (more than 95% inhibition of the mobility of spores) | ++++ (more than 95% inhibition of the mobility of spores) | ++++ (more than 95% inhibition of the mobility of spores) | ++++ (more than 95% inhibition of the mobility of spores) |  |
| CCCCCCCCCCCCCCCCCCCCO [C] |  | ++++ (more than 95% inhibition of the mobility of spores) | ++++ (more than 95% inhibition of the mobility of spores) | ++++ (more than 95% inhibition of the mobility of spores) | ++++ (more than 95% inhibition of the mobility of spores) | ++++ (more than 95% inhibition of the mobility of spores) | ++++ (more than 95% inhibition of the mobility of spores) |  |
| CCCCCCCCCCCCCCCO [D] |  | ++++ (more than 95% inhibition of the mobility of spores) | ++++ (more than 95% inhibition of the mobility of spores) | ++++ (more than 95% inhibition of the mobility of spores) | ++++ (more than 95% inhibition of the mobility of spores) | ++++ (more than 95% inhibition of the mobility of spores) | ++++ (more than 95% inhibition of the mobility of spores) |  |
| CCCCOC(=O)c1ccccc1C(=O)OCCCC [E] |  | ++++ (more than 95% inhibition of the mobility of spores) | ++++ (more than 95% inhibition of the mobility of spores) | ++++ (more than 95% inhibition of the mobility of spores) | ++++ (more than 95% inhibition of the mobility of spores) | ++++ (more than 95% inhibition of the mobility of spores) | ++++ (more than 95% inhibition of the mobility of spores) |  |
| CCCCCCCCCCCCCCCCCCCCO [Example 1-eicosanol, 1-eicosanol] | no death |  |  |  |  |  |  |  |
| CCCCCCCCOC(=O)c1ccccc1C(=O)OCCCCCCCC [F] |  | ++++ (more than 95% inhibition of the mobility of spores) | ++++ (more than 95% inhibition of the mobility of spores) | ++++ (more than 95% inhibition of the mobility of spores) | ++++ (more than 95% inhibition of the mobility of spores) | ++++ (more than 95% inhibition of the mobility of spores) | ++++ (more than 95% inhibition of the mobility of spores) |  |
| CC(C)CCCCCCOC(=O)c1ccccc1C(=O)OCCCCCCC(C)C [G] |  | ++++ (more than 95% inhibition of the mobility of spores) | ++++ (more than 95% inhibition of the mobility of spores) | ++++ (more than 95% inhibition of the mobility of spores) | ++++ (more than 95% inhibition of the mobility of spores) | ++++ (more than 95% inhibition of the mobility of spores) | ++++ (more than 95% inhibition of the mobility of spores) |  |
| O=C(OC1CCCCC1)c1ccccc1C(=O)OC1CCCCC1 [H] |  | ++++ (more than 95% inhibition of the mobility of spores) | ++++ (more than 95% inhibition of the mobility of spores) | ++++ (more than 95% inhibition of the mobility of spores) | ++++ (more than 95% inhibition of the mobility of spores) | ++++ (more than 95% inhibition of the mobility of spores) | ++++ (more than 95% inhibition of the mobility of spores) |  |
| CCCCOC(=O)c1ccccc1C(=O)OCCCC [dibutyl phthalate] | no death |  |  |  |  |  |  |  |
| O=C(OC1CCCCC1)c1ccccc1C(=O)OC1CCCCC1 [dicyclohexyl phthalate] | no death |  |  |  |  |  |  |  |
| CC(C)CCCCCCOC(=O)c1ccccc1C(=O)OCCCCCCC(C)C [diisononyl phthalate] | no death |  |  |  |  |  |  |  |
| CCCCCCCCOC(=O)c1ccccc1C(=O)OCCCCCCCC [dioctyl phthalate] | no death |  |  |  |  |  |  |  |
| CCCCCCCCCCCCCCCC [hexadecane] | no death |  |  |  |  |  |  |  |
| CCCCCCCCCCCCCCCC(=O)OC [methyl palmitate] |  |  |  |  |  |  |  | LD50 [6]: > 20000 mg/kg; stimulus to eyes [7]: only a transient stimulus phenomenon occurred; stimulus to skin [8]: only a very mild stimulus remained; LC50 [9]: 1000 µg/mL (≈ 3.7 mM) |
| CCCCCCCCCCCCCCCCCC(=O)OC [methyl stearate] |  |  |  |  |  |  |  | LD50 ([10]; in vivo, species and route not given): > 17200 mg/kg; stimulus ([10]; suction, intake, epidermal absorption): gives no stimulus |
| CCCCCCCCCCCCCCCCCC [octadecane] | no death |  |  |  |  |  |  |  |
